Experimental data: PMC12670396, “Crizotinib- or Ceritinib-Conjugated Platinum(IV) Prodrugs As Potent Multiaction Agents Inducing Antiproliferative Effects in 2D and 3D Cancer Cell Models” (Journal of Medicinal Chemistry, 2025)
One block for each compound: values may come before it.

Tests used:
CT26 cell line = assay: MTT cytotoxic/antiproliferative activity, 72 h; type: cell-based, murine; settings: Mus musculus
CT26 and NCI-H2228 cells = assay: Extracellular HMGB1 (ELISA); type: cell-based; settings: IC50 concentrations, 24 h
Description: The amount of HMGB1 in the medium was determined using an enzyme-linked immunosorbent assay (ELISA).
CT26 and NCI-H2228 cells were seeded in 48-well plates at a density of 5 × 10^4 cells/well and grown overnight. […] Aliquots of the supernatants were then withdrawn and processed using the HMGB1 Express ELISA kit (TECAN) according to the manufacturer’s instructions. The final absorbance, proportional to the HMGB1 amount, was read at 420 nm using a multimode SPARK reader (TECAN).

[1] = test system: panel of six cancer cell lines; assay: MTT, panel of six cancer cell lines (average, ranges); type: cell-based, human; settings: Homo sapiens; average over six cancer cell lines; read-out: av cancer (average IC50 in cancer cells)
Description: (§1) A panel of six cancer cell lines was used to evaluate the cytotoxic potential of the investigated compounds.
(§2) Cytotoxicity in hepatocyte-like cells (HLC). STEMdiff Hepatocyte Kit was used to generate HLC from human pluripotent stem cells. Cytotoxicity of several of the tested compounds in HLC was evaluated using the sulphorhodamine B assay.

NCI-H2228 = assay: MTT cytotoxic/antiproliferative activity, 72 h; type: cell-based, human; settings: Homo sapiens; NCI-H2228, MTT, 72 h
U87-MG = assay: MTT cytotoxic/antiproliferative activity, 72 h; type: cell-based, human; settings: Homo sapiens, U-87 MG, MTT, 72 h
Description: as §1, §2

[2] = test system: normal (noncancerous) cells MRC-5, IMR-90, hTERT-HPNE, MCF10A; assay: MTT, noncancerous cell lines (average, selectivity index); type: cell-based, human
Description: Growth inhibition activity in cancer cell lines was compared with the activity to inhibit the proliferation of normal (noncancerous) cells, namely MRC-5, IMR-90, hTERT-HPNE, and MCF10A cells. Selectivity indexes (SI) were calculated as (IC50 in noncancerous cells)/(average IC50 in cancer cells). […] We further assessed the toxicity of several of the compounds in hepatocyte-like cells (HLC) generated from human pluripotent cells. […]

ALK = molecular target: T1, ALK (Homo sapiens, UniProt Q9HC35+Q9UM73); assay: Western blot of ALK phosphorylation state; type: cell-based; settings: NCI-H2228 lysates, IC50 concentrations, 24 h
T1 construct: Western blot detection of the ALK phosphorylation state in lysates of NCI-H2228 cells exposed to the tested compounds; endogenous in cells; host or cells: NCI-H2228
T1 sequence (Q9HC35+Q9UM73 fused): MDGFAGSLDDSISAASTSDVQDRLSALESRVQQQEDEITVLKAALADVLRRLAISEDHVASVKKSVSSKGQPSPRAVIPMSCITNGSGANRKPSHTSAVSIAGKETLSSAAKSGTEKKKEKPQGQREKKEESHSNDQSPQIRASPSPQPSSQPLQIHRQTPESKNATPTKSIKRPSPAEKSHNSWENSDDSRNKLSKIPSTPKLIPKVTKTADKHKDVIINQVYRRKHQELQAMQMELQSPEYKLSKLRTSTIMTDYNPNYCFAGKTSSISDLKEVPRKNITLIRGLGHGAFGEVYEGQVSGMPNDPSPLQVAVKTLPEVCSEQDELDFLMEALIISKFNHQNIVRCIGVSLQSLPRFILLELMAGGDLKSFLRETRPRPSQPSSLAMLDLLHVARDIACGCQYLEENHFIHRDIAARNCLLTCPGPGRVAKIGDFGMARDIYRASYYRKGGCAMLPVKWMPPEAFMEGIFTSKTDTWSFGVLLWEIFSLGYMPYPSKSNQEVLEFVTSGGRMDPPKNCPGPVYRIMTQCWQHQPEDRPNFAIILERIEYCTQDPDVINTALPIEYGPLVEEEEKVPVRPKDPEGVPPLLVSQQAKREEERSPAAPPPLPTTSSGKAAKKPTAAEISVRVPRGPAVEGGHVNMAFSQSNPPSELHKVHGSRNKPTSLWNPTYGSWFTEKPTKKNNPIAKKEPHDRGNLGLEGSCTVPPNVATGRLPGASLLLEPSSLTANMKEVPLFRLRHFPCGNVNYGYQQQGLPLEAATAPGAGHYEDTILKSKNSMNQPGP
Description: (§3) Whereas the signals of pALK and pMET are decreased in the presence of the tested compounds, the overall amount of ALK and MET is not markedly changed.
(§4) NCI-H2228 cells were seeded in 6-well plates at a density of 2 × 10^5 cells/well and incubated overnight. […] The cells were then harvested and lysed using RIPA lysis buffer supplemented with protease and phosphatase inhibitors as recommended by the manufacturer. Protein extracts were resolved with SDS-PAGE, transferred to a PVDF membrane, and the respective proteins were detected with specific antibodies (anti-phosphoALK, anti-ALK, anti-phosphoMET, anti-MET, and anti-GADPH) and HRP-conjugated secondary antibodies. The signals were obtained with SignalFire ECL Reagent and recorded with an Amersham680 reader.

[3] = Cytotoxicity in hepatocyte-like cells, sulphorhodamine B assay; type: cell-based; settings: hepatocyte-like cells from human pluripotent cells
Description: (§5) Growth inhibition activity in cancer cell lines was compared with the activity to inhibit the proliferation of normal (noncancerous) cells, namely MRC-5, IMR-90, hTERT-HPNE, and MCF10A cells. Selectivity indexes (SI) were calculated as (IC50 in noncancerous cells)/(average IC50 in cancer cells). […] We further assessed the toxicity of several of the compounds in hepatocyte-like cells (HLC) generated from human pluripotent cells.
as §2

MRC-5 = assay: MTT cytotoxicity in noncancerous cells, 72 h; type: cell-based, human; settings: Homo sapiens, MRC5, MRC-5, MTT
Description: as §5, §2

IMR-90 = assay: MTT cytotoxicity in noncancerous cells, 72 h; type: cell-based, human; settings: Homo sapiens, IMR-90, MTT
Description: as §5, §2

MCF10A = assay: MTT cytotoxicity in noncancerous cells, 72 h; type: cell-based, human; settings: Homo sapiens, MCF-10A
Description: as §5, §2

hTERT-HPNE = assay: MTT cytotoxicity in noncancerous cells, 72 h; type: cell-based, human; settings: Homo sapiens
Description: as §5, §2

NCI-H2228 spheroids = assay: Cytotoxicity in 3D spheroids, CellTiter-Glo 3D; type: cell-based, human; settings: Homo sapiens, NCI-H2228 3D spheroids, 96 h
Description: (§6) In the 3D structure, the gradients of gases, nutrients, and therapeutics play a role in the final cytotoxicity of a compound.
(§7) A549 and NCI-H2228 cells were seeded in ultralow attachment, U-shape plates (Corning) at a density of 800 cells/well in the tumorsphere medium consisting of DMEM/F12 medium (Sigma), fibroblast growth factor (20 ng/mL; Sigma), epidermal growth factor 2 (10 ng mL^–1; Sigma), B27 supplement (1×; Gibco), bovine serum albumin, bovine serum albumin (BSA) (1.5 mg mL^–1; Sigma). […] CellTiter-Glo 3D viability assay was used for the experiment evaluation following the manufacturer’s instructions. The bioluminescence signal, proportional to the number of living cells, was measured using the luminescence reader SPARK, and IC50 values were calculated.

A549 spheroids = assay: Cytotoxicity in 3D spheroids, CellTiter-Glo 3D; type: cell-based, human; settings: Homo sapiens, A549 3D spheroids, 96 h
Description: as §6, §7

A549 = assay: MTT cytotoxic/antiproliferative activity, 72 h; type: cell-based, human; settings: Homo sapiens; A549, MTT, 72 h
MMC2 = assay: MTT cytotoxicity in NER-deficient cells, 72 h; type: cell-based, Chinese hamster
Description: The cytotoxicity assay was also employed to determine whether DNA damage might be involved in the mechanism of action of the tested compounds. The Chinese hamster ovary MMC2 cell line harbors the ERCC3/XPB mutation, which renders it deficient in nucleotide excision repair (NER), whereas the parent line CHOK1 is proficient in this repair process. Thus, the MMC2 line is often more sensitive to agents causing DNA damage, especially NER-reparable DNA damage, than CHOK1. […] Phosphorylation of H2AX is a commonly used marker of DNA damage. […]

MET = molecular target: T2, MET (Homo sapiens, UniProt P08581); assay: Western blot of MET phosphorylation state; type: cell-based; settings: NCI-H2228 lysates, IC50 concentrations, 24 h
T2 construct: Western blot analysis of the phosphorylation state of ALK and MET; endogenous in cells; host or cells: NCI-H2228
T2 sequence (P08581 25-1390): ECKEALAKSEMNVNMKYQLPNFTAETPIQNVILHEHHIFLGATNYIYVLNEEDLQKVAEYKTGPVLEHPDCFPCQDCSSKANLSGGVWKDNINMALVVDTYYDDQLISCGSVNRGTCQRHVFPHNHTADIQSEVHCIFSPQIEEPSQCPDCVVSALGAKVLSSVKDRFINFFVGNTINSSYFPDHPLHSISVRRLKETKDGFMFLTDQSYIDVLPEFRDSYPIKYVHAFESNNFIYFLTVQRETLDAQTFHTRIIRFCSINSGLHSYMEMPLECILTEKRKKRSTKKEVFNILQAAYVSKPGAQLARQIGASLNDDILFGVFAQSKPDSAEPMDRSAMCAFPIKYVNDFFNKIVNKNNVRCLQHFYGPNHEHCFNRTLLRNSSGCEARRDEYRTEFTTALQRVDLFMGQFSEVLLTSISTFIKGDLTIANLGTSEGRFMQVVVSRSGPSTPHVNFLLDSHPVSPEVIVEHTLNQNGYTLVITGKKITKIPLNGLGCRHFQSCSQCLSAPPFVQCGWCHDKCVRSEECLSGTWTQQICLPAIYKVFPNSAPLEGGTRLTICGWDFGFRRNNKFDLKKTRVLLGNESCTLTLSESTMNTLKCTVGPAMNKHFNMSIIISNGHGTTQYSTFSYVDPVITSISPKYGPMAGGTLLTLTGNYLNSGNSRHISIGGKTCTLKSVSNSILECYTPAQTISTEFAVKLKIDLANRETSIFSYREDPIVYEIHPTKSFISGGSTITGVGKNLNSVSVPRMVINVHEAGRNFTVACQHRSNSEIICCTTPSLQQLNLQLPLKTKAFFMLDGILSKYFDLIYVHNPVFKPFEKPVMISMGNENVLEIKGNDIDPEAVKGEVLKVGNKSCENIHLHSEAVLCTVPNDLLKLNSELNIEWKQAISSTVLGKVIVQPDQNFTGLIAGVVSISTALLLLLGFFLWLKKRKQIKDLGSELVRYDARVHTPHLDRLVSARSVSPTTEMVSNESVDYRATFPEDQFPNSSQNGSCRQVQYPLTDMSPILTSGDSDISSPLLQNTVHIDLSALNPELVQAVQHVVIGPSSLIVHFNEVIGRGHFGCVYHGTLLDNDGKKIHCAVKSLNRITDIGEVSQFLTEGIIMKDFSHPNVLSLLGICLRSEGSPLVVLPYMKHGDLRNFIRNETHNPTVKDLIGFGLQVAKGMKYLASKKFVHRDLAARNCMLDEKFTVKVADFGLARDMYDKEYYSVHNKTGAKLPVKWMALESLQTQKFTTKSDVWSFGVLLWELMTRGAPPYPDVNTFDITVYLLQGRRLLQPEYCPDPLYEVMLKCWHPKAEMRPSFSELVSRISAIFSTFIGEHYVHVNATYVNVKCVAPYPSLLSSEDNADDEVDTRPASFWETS
Description: as §3, §4

RD = assay: MTT cytotoxic/antiproliferative activity, 72 h; type: cell-based, human; settings: Homo sapiens, MTT, 72 h
CHOK1 = assay: MTT cytotoxicity in NER-proficient cells, 72 h; type: cell-based, Chinese hamster; settings: Cricetulus griseus, CHO-K1
Description: The cytotoxicity assay was also employed to determine whether DNA damage might be involved in the mechanism of action of the tested compounds. The Chinese hamster ovary MMC2 cell line harbors the ERCC3/XPB mutation, which renders it deficient in nucleotide excision repair (NER), whereas the parent line CHOK1 is proficient in this repair process. Thus, the MMC2 line is often more sensitive to agents causing DNA damage, especially NER-reparable DNA damage, than CHOK1. […] Phosphorylation of H2AX is a commonly used marker of DNA damage.
as §2

HCT116 = assay: MTT cytotoxic/antiproliferative activity, 72 h; type: cell-based, human; settings: Homo sapiens, HCT-116; HCT116, MTT, 72 h
MDA-MB-231 = assay: MTT cytotoxic/antiproliferative activity, 72 h; type: cell-based, human; settings: Homo sapiens; MDA-MB-231, MTT, 72 h

Compound: COc1cccc2c1C(=O)c1c(O)c3c(c(O)c1C2=O)C[C@@](O)(C(=O)CO)C[C@@H]3O[C@H]1C[C@H](N)[C@H](O)[C@H](C)O1 [DOX, doxorubicin]
IC50 (CT26 cell line): 2100 ± 300 nM | HMGB1 externalization relative to nontreated control (CT26 and NCI-H2228 cells): highest increase

IC50 [1]: 1100 nM | phosphorylation of ALK (ALK): inhibit the phosphorylation | phosphorylation of MET (MET): inhibit the phosphorylation
Compound: Cc1cc(Nc2ncc(Cl)c(Nc3ccccc3S(=O)(=O)C(C)C)n2)c(OC(C)C)cc1C1CCNCC1 [compound 5, ceritinib]
IC50 (NCI-H2228): 510 ± 40 nM | IC50 (U87-MG): 1100 ± 1000 nM | IC50 ([2]; Homo sapiens, average over MRC-5, IMR-90, hTERT-HPNE, MCF10A, read-out: av norm (average IC50 in noncancerous cells)): 3400 nM | SI, selectivity index ([2]; IC50(normal cells)/averageIC50(cancer cells)): 3.0 | IC50 [3]: 8000 ± 3000 nM | IC50 (MRC-5): 2200 ± 500 nM | IC50 (IMR-90): 3700 ± 400 nM | IC50 (MCF10A): 3400 ± 900 nM | IC50 (hTERT-HPNE): 4100 ± 200 nM | IC50 (CT26 cell line): 1200 ± 300 nM | IC50 (NCI-H2228 spheroids): 750 ± 90 nM | IC50 (A549 spheroids): 2300 ± 800 nM | IC50 (A549): 900 ± 200 nM | IC50 (MMC2; Cricetulus griseus, MMC2 (NER deficient), MTT, 72 h): 1300 ± 300 nM | Index F (MMC2; IC50(CHOK1)/IC50(MMC2)): 1.08 | IC50 (RD): 1500 ± 300 nM | IC50 (CHOK1): 1400 ± 600 nM | IC50 (HCT116): 900 ± 200 nM | IC50 (MDA-MB-231): 1400 ± 900 nM
